From patent publication US4196205A, “3-Acetoxymethyl-7-(iminoacetamido)-cephalosporanic acid derivatives” (priority 1976, dated 1980)
≈ marks a conversion by molar mass, not a printed value. Like-named read-outs stand apart in the source and are kept apart here.

Key:
[1] = Acute toxicity in mice; type: in vivo, female mice of Swiss CD1 Specific Pathogen Free Strain; settings: for Total Mortality: 4 days
Experimental: The acute toxicity of the product of Example 7 was determined on groups of 8 to 10 female mice of Swiss CD1 Specific Pathogen Free Strain (stock CH.River-France), with an average weight of 19 to 21 g, for each dose of the compound.
The animals had injection in the caudal vein in a variable volume at a rate of 1 ml/mn of the product of Example 7 dissolved at a concentration of 100 mg/ml in sterile apyrogen distilled water.

[2] = system: Salmonella typhimurium 5210; assay: Experimental infection with Salmonella typhimurium in mice; type: in vivo
Experimental: Groups of 10 mice with an average weight of 20.5 g were intraperitoneally injected with 0.5 ml of a 24 hour old culture in oxoid bouillon of Salmonella typhimurium 5210 diluted 1/75 with distilled water. The product of Example 7 was administered subcutaneously one hour and 4, 8, 24 and 32 hours after the infection and the results, determined as before, are reported in the following Table.

[3] = system: Escherichia Coli Resistant Gentamicine, Tobramycine R 55 123 D; assay: MIC, dilution in liquid medium; type: cell-based; settings: for MIC: Escherichia coli
Experimental: (§1) The method used was a dilution of a liquid medium where a series of tubes received the same quantity of a sterile nutritive media and increasing doses of the test compounds were placed therein. Then each tube was seeded with a bacterial strain and was incubated for 24 to 48 hours at 37° C. in an oven. The increasing inhibition was determined by transillumination to determine the minimum inhibiting concentration (MIC in […]) and the results are reported in the following Tables.

[4] = system: Staphylococcus aureus UC 1 128 Pen-Resistant; assay: MIC, dilution in liquid medium; type: cell-based; settings: for MIC: Staphylococcus aureus, read-out: M.I.C.
Experimental: as §1

[5] = system: Bacillus subtilis ATCC 6 633; assay: MIC, dilution in liquid medium; type: cell-based; settings: for MIC: Bacillus subtilis
Experimental: as §1

[6] = system: Escherichia Coli Sensible Tetracycline ATCC 9 637 = 1020; assay: MIC, dilution in liquid medium; type: cell-based; settings: for MIC: Escherichia coli
Experimental: as §1

[7] = system: Proteus vulgaris (indol+) A 232; assay: MIC, dilution in liquid medium; type: cell-based; settings: Proteus vulgaris, read-out: M.I.C.
Experimental: as §1

[8] = system: Streptococcus faecalis 5 432; assay: MIC, dilution in liquid medium; type: cell-based
Experimental: as §1

[9] = system: Streptococcus pyogenes A 561; assay: MIC, dilution in liquid medium; type: cell-based; settings: for MIC: Streptococcus pyogenes, read-out: M.I.C.
Experimental: as §1

[10] = system: Salmonella typhimurium 420; assay: MIC, dilution in liquid medium; type: cell-based; settings: for MIC: Salmonella enterica, TYPHIMURIUM
Experimental: as §1

[11] = system: Klebsiella pneumoniae 2 536 Resistant Gentamicine; assay: MIC, dilution in liquid medium; type: cell-based; settings: for MIC: Klebsiella pneumoniae
Experimental: as §1

[12] = system: Klebsiella pneumoniae Exp. 52 145; assay: MIC, dilution in liquid medium; type: cell-based; settings: for MIC: Klebsiella pneumoniae
Experimental: as §1

[13] = system: Providencia Du 48; assay: MIC, dilution in liquid medium; type: cell-based
Experimental: as §1

[14] = system: Escherichia Coli Resistant Tetracycline ATCC 11 303 = UC 1261; assay: MIC, dilution in liquid medium; type: cell-based; settings: for MIC: Escherichia coli
Experimental: as §1

[15] = system: Staphylococcus aureus ATCC 5 638 Pen-Sensible = UC 1061; assay: MIC, dilution in liquid medium; type: cell-based
Experimental: as §1

[16] = system: Streptococcus faecalis 99 F 74; assay: MIC, dilution in liquid medium; type: cell-based
Experimental: as §1

[17] = system: Staphylococcus aureus exp. n° 54 146; assay: MIC, dilution in liquid medium; type: cell-based; settings: for MIC: Staphylococcus aureus
Experimental: as §1

[18] = system: Pseudomonas 3 935 Exp. SG; assay: MIC, dilution in liquid medium; type: cell-based
Experimental: as §1

[19] = system: Proteus mirabilis (indol-) A 235; assay: MIC, dilution in liquid medium; type: cell-based; settings: for MIC: Proteus mirabilis
Experimental: as §1

[20] = system: Escherichia Coli Exp. TO26 B6; assay: MIC, dilution in liquid medium; type: cell-based; settings: for MIC: Escherichia coli
Experimental: as §1

[21] = system: Enterobacter cloacae 681; assay: MIC, dilution in liquid medium; type: cell-based
Experimental: as §1

CO/N=C(\C(=O)N[C@@H]1C(=O)N2C(C(=O)O)=C(COC(C)=O)CS[C@H]12)c1csc(N)n1 [Example 7, sodium 3-acetoxymethyl-7-[2-(2-amino-4-thiazolyl)-2-methoxyiminoacetamido]-ceph-3-eme-4-carboxylate]
lethal dose ([1]; caudal vein, mice): above 2000 mg/kg
Total Mortality ([1]; dose 500 mg, caudal vein): 0/10
Total Mortality ([1]; dose 1000 mg, caudal vein): 0/10
Total Mortality ([1]; dose 2000 mg, caudal vein): 0/8
Symptomatology ([1]; following the injections and during the observation period): No symptoms of intoxication were noted
MORTALITY AFTER 6J ([2]; 0,1 mg subcutaneously): 3
MORTALITY AFTER 7J ([2]; 0,1 mg subcutaneously): 3
MORTALITY AFTER 8J ([2]; 0,1 mg subcutaneously): 1
Mice alive on the 10th day ([2]; 0,1 mg subcutaneously): 3/10
MORTALITY AFTER 5J ([2]; 0,5 mg subcutaneously): 1
MORTALITY AFTER 6J ([2]; 0,5 mg subcutaneously): 1
MORTALITY AFTER 7J ([2]; 0,5 mg subcutaneously): 1
Mice alive on the 10th day ([2]; 0,5 mg subcutaneously): 7/10
MORTALITY AFTER 7J ([2]; 0,25 mg subcutaneously): 2
MORTALITY AFTER 8J ([2]; 0,25 mg subcutaneously): 1
MORTALITY AFTER 9J ([2]; 0,25 mg subcutaneously): 2
Mice alive on the 10th day ([2]; 0,25 mg subcutaneously): 5/10
MORTALITY AFTER 8J ([2]; 1 mg subcutaneously): 1
Mice alive on the 10th day ([2]; 1 mg subcutaneously): 9/10
Mice alive on the 10th day ([2]; 2 mg subcutaneously): 10/10
M.I.C. ([3]; 24 H): 0,1 μg/ml
M.I.C. ([3]; 48 H): 0,1 μg/ml
M.I.C. ([4]; 24 H): 2 µg/mL
M.I.C. ([4]; 48 H): 3 µg/mL
M.I.C. ([5]; 24 H): 1 µg/mL
M.I.C. ([5]; 48 H): 2 µg/mL
M.I.C. ([6]; 24 H): 0,1 μg/ml
MIC ([6]; ATCC9, 48 h, 48 H, read-out: M.I.C.): 0.1 µg/mL
MIC ([7]; 24 h): 0.2 µg/mL
MIC ([7]; 48 h): 0.6 µg/mL
M.I.C. ([8]; 24 H): 1 µg/mL
M.I.C. ([8]; 48 H): 3 µg/mL
M.I.C. ([9]; 24 H): 0,01 μg/ml
M.I.C. ([9]; 48 H): 0,01 μg/ml
M.I.C. ([10]; 24 H): 0,1 μg/ml
M.I.C. ([10]; 48 H): 20 µg/mL
M.I.C. ([11]; 24 H): 0,2 μg/ml
M.I.C. ([11]; 48 H): 0,2 μg/ml
M.I.C. ([12]; 24 H): ≤ 0,02 μg/ml
M.I.C. ([12]; 48 H): ≤ 0.02 µg/mL
M.I.C. ([13]; 24 H): 1 µg/mL
M.I.C. ([13]; 48 H): 2 µg/mL
M.I.C. ([14]; 24 H): ≤ 0,02 μg/ml
M.I.C. ([14]; 48 H): ≤ 0,02 μg/ml
MIC ([15]; 48 h): 2 µg/mL
M.I.C. ([16]; 24 H): 3 µg/mL
MIC ([16]; Enterococcus faecalis, 99F74, 48 h, read-out: M.I.C.): 10 µg/mL
M.I.C. ([17]; 48 H): 2 µg/mL
MIC ([17]; 24 h): 2 µg/mL
M.I.C. ([18]; 24 H): 10 µg/mL
M.I.C. ([18]; 48 H): 20 µg/mL
M.I.C. ([19]; 24 H): ≤ 0,02 μg/ml
M.I.C. ([19]; 48 H): ≤ 0,02 μg/ml
M.I.C. ([20]; 24 H): 0,05 μg/ml
M.I.C. ([20]; 48 H): 0,05 μg/ml

CC(=O)OCC1=C(C(=O)O)N2C(=O)[C@@H](NC(=O)/C(=N/O)c3csc(N)n3)[C@H]2SC1 [3-acetoxymethyl-7-[2-(2amino-4-thiazolyl)-2-hydroxyiminoacetamido]-ceph-3-eme-4-carboxylic acid]
MIC ([3]; 24 h): 5 µg/mL (≈ 11.3 µM)
MIC ([3]; 48 h, RG R55 123D, read-out: M.I.C.): 10 µg/mL (≈ 22.7 µM)
MIC ([4]; UC1, 24 h): 10 µg/mL (≈ 22.7 µM)
MIC ([4]; UC1, 48 h): 10 µg/mL (≈ 22.7 µM)
MIC ([5]; ATCC6, 24 h, 24 H): 2 µg/mL (≈ 4.53 µM)
MIC ([5]; ATCC6, 48 h, 48 H): 5 µg/mL (≈ 11.3 µM)
MIC ([6]; ATCC 9 / UC1020, 24 h, 24 H, ST UC 1020): 3 µg/mL (≈ 6.8 µM)
MIC ([6]; ATCC 9 / UC1020, 48 h, 48 H, ST UC 1020): 3 µg/mL (≈ 6.8 µM)
MIC ([9]; A561, 24 h, 24 H): 0.5 µg/mL (≈ 1.13 µM)
MIC ([9]; A561, 48 h, 48 H): 0.5 µg/mL (≈ 1.13 µM)
MIC ([10]; 24 h): 2 µg/mL (≈ 4.53 µM)
MIC ([10]; 48 h): 2 µg/mL (≈ 4.53 µM)
MIC ([11]; 24 h): 20 µg/mL (≈ 45.3 µM)
MIC ([11]; 48 h): 40 µg/mL (≈ 90.6 µM)
MIC ([12]; EXP.52145, 24 h, 24 H, read-out: M.I.C.): 0.6 µg/mL (≈ 1.36 µM)
MIC ([12]; EXP.52145, 48 h, 48 H): 0.6 µg/mL (≈ 1.36 µM)
MIC ([14]; 24 h): 1 µg/mL (≈ 2.27 µM)
MIC ([14]; 48 h): 1 µg/mL (≈ 2.27 µM)
MIC ([21]; Enterobacter cloacae, 681, 24 h): 40 µg/mL (≈ 90.6 µM)
MIC ([21]; Enterobacter cloacae, 681, 48 h): 40 µg/mL (≈ 90.6 µM)
MIC ([15]; 24 h, UC 1061 Pen-Sensible): 5 µg/mL (≈ 11.3 µM)
MIC ([15]; 48 h, UC 1061 Pen-Sensible): 5 µg/mL (≈ 11.3 µM)
MIC ([17]; 24 h): 5 µg/mL (≈ 11.3 µM)
MIC ([17]; 48 h, read-out: M.I.C.): 10 µg/mL (≈ 22.7 µM)
MIC ([19]; 24 h): 2 µg/mL (≈ 4.53 µM)
MIC ([19]; 48 h): 2 µg/mL (≈ 4.53 µM)
MIC ([20]; 24 h): 2 µg/mL (≈ 4.53 µM)
MIC ([20]; 48 h): 2 µg/mL (≈ 4.53 µM)
